Laboratory results from ChEMBL document CHEMBL1201862, “PubChem BioAssay data set” (2004).
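Five compound concentrations were applied to cells in 96-well plates for 48 hours; endpoints were derived by simple linear interpolation of the resulting dose-response curve. GI50 is the concentration that inhibits growth by half.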 Calls of active or inactive are those of the source. Rule as the data show it: active = GI50 up to about 1.1 µM and inactive = higher.

What was measured:
Assay in all cases: inhibition of tumour cell growth, NCI panel, 48 h
OVCAR-5 = test system: OVCAR-5
ACHN = test system: ACHN
SK-MEL-28 = test system: SK-MEL-28
786-0 = test system: 786-0
Malme-3M = test system: Malme-3M
TK-10 = test system: TK-10
OVCAR-3 = test system: OVCAR-3
NCI-H522 = test system: NCI-H522
SK-MEL-2 = test system: SK-MEL-2
RPMI-8226 = test system: RPMI-8226
KM12 = test system: KM12
A549 = test system: A549
LXFL 529 = test system: LXFL 529
HCC 2998 = test system: HCC 2998
EKVX = test system: EKVX
HOP-18 = test system: HOP-18
Hs-578T = test system: Hs-578T
MDA-N = test system: MDA-N
DU-145 = test system: DU-145
MDA-MB-231 = test system: MDA-MB-231

Row | SMILES | GI50 (OVCAR-5) | GI50 (ACHN) | GI50 (SK-MEL-28) | GI50 (786-0) | GI50 (Malme-3M) | GI50 (TK-10) | GI50 (OVCAR-3) | GI50 (NCI-H522) | GI50 (SK-MEL-2) | GI50 (RPMI-8226) | GI50 (KM12) | GI50 (A549) | GI50 (LXFL 529) | GI50 (HCC 2998) | GI50 (EKVX) | GI50 (HOP-18) | GI50 (Hs-578T) | GI50 (MDA-N) | GI50 (DU-145) | GI50 (MDA-MB-231)
1 | O=C(c1ccccc1)c1c(CC(O)c2ccncc2)n(C(=O)c2ccccc2)c2ccccc12 (configuration not stated) | 15.8 µM (inactive) | 20.2 µM (inactive) | 17.7 µM (inactive) | 17 µM (inactive) | 18 µM (inactive) | 28.6 µM (inactive) | 14 µM (inactive) | 13.2 µM (inactive) | 16 µM (inactive) | 19.6 µM (inactive) | 19.2 µM (inactive) | 17.8 µM (inactive) | 18.8 µM (inactive) | 17.1 µM (inactive) | – | – | – | – | – | –
2 | Nc1ncnc2c(C3OC(CO)C(O)C3O)n[nH]c12 (configuration not stated) | 0.59 µM (active) | – | – | – | 0.432 µM (active) | – | – | 0.151 µM (active) | 0.0863 µM (active) | 0.159 µM (active) | 0.38 µM (active) | 0.428 µM (active) | – | 0.0375 µM (active) | 0.0646 µM (active) | 0.0592 µM (active) | – | – | – | –
3 | CCC1=CC2CN3CCc4c([nH]c5ccccc45)C(C(=O)OC)(C2)C13 (configuration not stated) | 7.4 µM (inactive) | – | 53.3 µM (inactive) | – | 50.4 µM (inactive) | – | 42.8 µM (inactive) | 45.7 µM (inactive) | 67.8 µM (inactive) | 18.5 µM (inactive) | 20 µM (inactive) | 47.6 µM (inactive) | – | 48.3 µM (inactive) | 36.7 µM (inactive) | 47.9 µM (inactive) | – | – | – | –
4 | O=C(CC(=O)N1N=C(c2ccccc2)C(/N=N/c2ccccc2Cl)C1=O)Nc1ccccc1Cl (configuration not stated) | > 100 µM (inactive) | 20.2 µM (inactive) | 44.3 µM (inactive) | 20.8 µM (inactive) | – | 15.4 µM (inactive) | 28.1 µM (inactive) | 28.9 µM (inactive) | 43.5 µM (inactive) | 17.3 µM (inactive) | 14.1 µM (inactive) | 21.4 µM (inactive) | 26.2 µM (inactive) | > 100 µM (inactive) | 33.1 µM (inactive) | – | – | – | – | –
5 | C/C(=N/NC(=S)Nc1ccccc1C)c1ccccn1 | 0.0843 µM (active) | 0.0562 µM (active) | 1.08 µM (active) | 0.0627 µM (active) | 1.6 µM (inactive) | 0.259 µM (active) | 0.0144 µM (active) | 0.583 µM (active) | 2.65 µM (inactive) | < 0.0188 µM (active) | 0.173 µM (active) | 0.0855 µM (active) | – | 6.27 µM (inactive) | 0.167 µM (active) | – | 15.7 µM (inactive) | 0.807 µM (active) | 1.63 µM (inactive) | < 0.0216 µM (active)
6 | Nc1nc(Cl)cc(NCCO)n1 | > 100 µM (inactive) | > 100 µM (inactive) | > 100 µM (inactive) | > 100 µM (inactive) | > 100 µM (inactive) | > 100 µM (inactive) | > 100 µM (inactive) | > 100 µM (inactive) | > 100 µM (inactive) | > 100 µM (inactive) | > 100 µM (inactive) | > 100 µM (inactive) | – | 72.6 µM (inactive) | > 100 µM (inactive) | – | > 100 µM (inactive) | > 100 µM (inactive) | > 100 µM (inactive) | > 100 µM (inactive)
7 | CN1CCC(CNC(=O)CCCCCCCCC(=O)NCC2(c3ccccc3)CCN(C)CC2)(c2ccccc2)CC1 | > 100 µM (inactive) | > 100 µM (inactive) | > 100 µM (inactive) | 52.4 µM (inactive) | > 100 µM (inactive) | > 100 µM (inactive) | > 100 µM (inactive) | > 100 µM (inactive) | > 100 µM (inactive) | > 100 µM (inactive) | > 100 µM (inactive) | > 100 µM (inactive) | – | > 100 µM (inactive) | 8.22 µM (inactive) | – | 84.1 µM (inactive) | > 100 µM (inactive) | > 100 µM (inactive) | > 100 µM (inactive)
8 | Cc1cccc(Nc2nc3ccccc3nc2NS(=O)(=O)c2ccc(N)cc2)c1 | > 100 µM (inactive) | 32.2 µM (inactive) | 27.7 µM (inactive) | 30 µM (inactive) | 78.7 µM (inactive) | 32.5 µM (inactive) | 38.5 µM (inactive) | 18 µM (inactive) | 24.9 µM (inactive) | 23.4 µM (inactive) | 26.7 µM (inactive) | 23.8 µM (inactive) | – | 30.9 µM (inactive) | 54.3 µM (inactive) | – | 49.5 µM (inactive) | 45.9 µM (inactive) | 37.2 µM (inactive) | 36.3 µM (inactive)
9 | Cn1cc2ccccc2c1-c1nc(F)nc(Nc2ccc(N)cc2)n1 | 26.4 µM (inactive) | 23.3 µM (inactive) | 15.5 µM (inactive) | 22.3 µM (inactive) | 14.4 µM (inactive) | 34.3 µM (inactive) | 20.8 µM (inactive) | 14.4 µM (inactive) | 13.3 µM (inactive) | 13.3 µM (inactive) | 14 µM (inactive) | 18.1 µM (inactive) | 16 µM (inactive) | 18 µM (inactive) | 23.3 µM (inactive) | – | – | – | – | –
